Laboratory results: US20060257875A1, “Affinity screening using "one-bead-one-compound" libraries” (Carlsberg A/S, priority 2003, published 2006)
Non-standard residues stand in square brackets, D forms with d. No end group written: not given here. T(Sa) = sialic acid threonine lactam (threonine bearing sialic acid, its amine closed onto the sugar)

Tests used:
[1] = system: PE-induced myocyte protein; assay: Solid phase screening of Library 6 with unlabeled myocyte proteins; silver staining, on-bead tryptic digest; assay type: binding, neonatal Wistar rats; details: PE-Treated Myocytes
Experimental: (§1) Myocytes were prepared from 1 to 5 day old neonatal Wistar rats (University of Copenhagen) according to literature procedure described in Busk et al., 2002, Cardiovasc. Res., 56: 64-75 and plated into eight P10 culture plates at 6 million cells/plate.
Isolated proteins that bound to specific ligands were identified using peptide mass fingerprinting. Mass spectra were recorded on a Bruker Reflex m MALDI time-of-flight mass spectrometer (Bruker-Daltonics, Bremen, Germany) operated in the positive reflectron mode using delayed extraction. Measurements were performed using the following parameters: Power 83-84 V; lens 7.300. The sum of 200-300 shots was used for each spectrum.
The spectra were calibrated using bradykinin peptide. In some cases, internal mass calibration was performed using a porcine trypsin autolysis product Peptide masses were searched against peptide mass maps in the National Center for Biotechnology Information (NCBI) database using the following search engines found on the world wide web (www.) for each of: • MS-FIT (prospector.ucsf.edu/ucsfhtml/msfit.htm), • Profound (129.85.19.192/profound_biniWebProFound.exe), and • MASCOT (matrixscience.com).
A search was performed using the NCBI bacterial (E. coli) database and the mammalian databases for the isolated proteins from the E. coli and myocyte samples, respectively, and the Swiss Prot mammalian databases and the Swiss Prot viral databases were searched to identify the porcine macrophage proteins and proteins, respectively. A molecular mass range was estimated from 0-250 K Da, allowing a mass accuracy that varied from 0.1 Da (some cases 0.3 Da) for each peptide mass. A large pI range from 0-14 or 0-12 was considered for each search. If no proteins matched, the mass window was extended. Partial enzyme cleavages allowing for two missed cleavage sites and modification of cysteine by alkylation were considered in the search approaches. A protein was considered identified if the matched peptides covered at least 30% of the complete sequence. A match of less than 30% was considered in some cases, if prominent peaks were obtained. Usually, four or more peptides were used for identification. In some instances, hypothetical proteins or gene products, such as biochemical material, either RNA or protein, calculated from the expected expression of a gene and to which a function may be assigned based on sequence homology, were identified.
Protein was extracted from myocytes prepared as described above for Example 9, using a new procedure (to preserve the activity of metalloproteases) modified from existing protocols, primarily: Amott, et al., 1998, Anal. Biochem. 258: 1-18. The media was removed from plates and cells were washed with ice cold phosphate buffer (5 ml, 10 mM, pH 7.5, supplemented with 0.15 M NaCl,) to remove traces of media components. The adhered cells were treated for 10 minutes with ice cold phosphate buffer (2 mL, 10 mM, pH 7.5, augmented with 0.15 M NaCl, […] E-64, 10 μg/mL Leupeptin, and 10 μg/mL Pepstatin A). The cells were scraped off the plates and then lysed (on ice) in a sonicator (2×) using 10 seconds off/110 seconds on cycles.
The resulting suspension was augmented with CHAPS (1% w/v), KCl (50 mM), NaCl (0.5 M), ZnCl2 (0.1 mM), DTT (5 mM), and urea (2 M). After 10-15 minutes on ice, the solution was centrifuged for 10 minutes at 15,000 rpm at 4° C. The supernatant was removed and protein content quantified using the NanoOrange Protein test (Molecular Probes, Eugene, Oreg.): Total protein recovered: 195 μg for PE-induced cells and 200 μg for basal cells.
The protein solutions were dialyzed extensively against 20 mM MES (2-[N-Morpholino]ethanesulfonic acid) buffer pH 6.0, supplemented with 0.15 M NaCl and 1 mM ZnCl2 to remove excess detergent and urea. […]

[2] = system: normal/healthy myocyte proteins; assay: Solid phase screening of small molecule biaryl Library 7 with labeled myocyte proteins; assay type: binding, neonatal Wistar rats; details: Normal Myocytes
Experimental: as §1
In another case, fluorescent dye Cyanine 3 (Cy 3) (Molecular Probes) was used to label the healthy/basal cells while Cyanine 2 (Cy 2) (Molecular Probes) was used to label the PE-treated cells. The labeling procedures were carried out according to the manufacturer's protocol. The protein solutions (0.35 mL, 100 μg for PE cells and 0.41 mL, 100 μg for basal cells) were dialyzed against a solution of 10 mM phosphate buffer, 0.15 M NaCl, pH 7.5 and then 1 M NaHCO3 (0.03-0.04 mL) was added to obtain a final pH between 8.0-9.0. For efficient labeling, […] fluor (5 μL solution was prepared by addition of […] of reconstituted fluorophore solution [1 nmol μL] and 3 μL of dry DMF) was used to label 50 μg of protein. The fluorophore and the protein solution are mixed thoroughly by vortexing. The samples are then centrifuged briefly in a microfuge and left on ice for 30 min in the dark. To stop the reaction, 10 mM lysine (1 μL) was added to the samples and the samples were mixed by vortexing and centrifuged briefly in a microfuge. The samples were left on ice for 10 min in the dark. The labeled protein solutions were dialyzed extensively against 10 mM phosphate buffer, 0.15 M NaCl, pH 7.5, to remove excess dye. Labeled samples were stored for at −70° C. in the dark until further use.
Alternatively, the fluorescent ligand library beads containing bound protein obtained as described in Examples 47, 48, 49 and 51 were sorted using a COPAS (250) NF Bead Sorter (Union Biometrica, Somerville, Mass.) equipped with a dual detector. Both the cyanine dyes used in the labeling procedure, namely Cy 2 (emission wavelength—510 nm) and Cy 3 (emission wavelength—570 nm) were simultaneously excited at […] The bead selection window was then set-up such that all beads containing significant green fluorescence and no red flourescence were isolated. The unselected beads were then resorted to obtain beads containing red fluorescence (proteins from basal cells). The selected red and green fluorescent beads were then sorted into brightly and less brightly fluorescent beads, to give an indication of either the strength of binding of the ligand to a particular protein or the amount of protein present in the sample binding to the ligand.
(§2) Ligands can be completely or partially identified by MALDI_TOF-MS whether or not the library is synthesized by ladder synthesis. […] The ligand is cleaved from the resin bead depending on the type of linker used. […] Peptide fragments (ladder synthesis) or single compounds were extracted from the bead with 0.5 AL CH3CN, then 0.5 FL 70% CH3CN/H2O. […] In the case of the acid labile Rink linker (Library 7), the compound was released from the bead by treatment with 95% TFA or 30 min. The TFA solution was evaporated and the cleaved compounds were extracted in 2 μL 70% acetonitrile+0.1% TFA. This mixture was then transferred to a stainless steel disc to which 0.4 μL of CHC matrix+1.0% TFA was added. An additional 0.4 μL of CHC matrix+1.0% TFA was added to complete sample application.
A typical analysis employed 100-300 laser shots. […] The possible identity of the ligand was determined (Narrowed down) by comparing the recorded mass of the ligand with the masses of all possible compounds formed in the library. […]

[3] = system: Serum induced Myocytes proteins; assay: Solid phase screening of Library 5 with labeled myocyte protein; assay type: binding, neonatal Wistar rats
[4] = system: E. coli membrane proteins; assay: Solid phase screening of Library 2 with labeled E. coli membrane proteins; bound proteins identified by tryptic digest and peptide mass fingerprinting; assay type: binding, Escherichia coli DH 5α-136; details: Library 2 ligand on bead
Experimental: A 400 mL culture of Escherichia coli DH 5α-136 (Carlsberg Research Center Collection) was prepared according to the procedures described in Hanahan, 1985, In: DNA Cloning, Vol 1, Glover, D., ed., IRL Press Ltd, pp. 109-135. […]. The media containing extracellular protein was retained and the pellet washed once with PBS, pH 7.6 (cellular weight=2.22g).
Isolation of E. coli membrane proteins was achieved through modification of published literature procedures: Auer, et al., 2001, Biochemistry, 40:6628-6635, and Molloy, et al., 2000, Eur. J. Biochem. 267:2871-2881. After incubation of E. coli cells for 2 days, washed cells were scraped from plates and centrifuged as described above for Example 10. The cell pellet (approximately 1 g) was suspended in 50 mM Tris HCl, pH 7.5 and pressed (2×) in a French Press at 1500 Psi. The resulting suspension was centrifuged at 2500×g for 10 minutes. The ice cold supernatant was diluted with 2.5 ml of ice-cold 0.1 M sodium carbonate buffer 11 and the solution stirred on ice for 1 hour. Ultracentrifugation was then carried out at 115, 000×g for 1 to 1.5 hours at 4° C., yielding Pellet 1 and Supernatant 1. The membrane pellet 1 was resuspended in 50 mM Tris HCl, pH 7.5 and the pellet was recollected after centrifugation for an additional 20 minutes at 115,000×g, yielding Pellet 2 and supernatant 2. Pellet 2 was solubilized in 50 mM Tris HCl, pH 7.5 containing 10 MM imidazole, 0.5 mM PMSF, 20% glycerol, and 1% Dodecyl Maltoside (DM) or 33 mM Octyl Glucoside (OG) for 30 mninutes at 4° C. The suspension was then centrifuged for 10,000 g for 30 minutes. The pellet and supernatant obtained were labeled Pellet 3 and supernatant 3.
The protein was labeled with amino reactive succinylanthranilate dye (blue) DDM (0.49 mg dye) and OG (0.03 mg dye) according to the same protocol used in the extracellular labeling described above for Example 12. The labeling stopping reaction (hydroxylamine hydrochloride addition) was not used in this case, to avoid dilution of the protein. The mixture was dialyzed overnight against 10 mM PBS buffer, pH 6.8 containing 0.01 MM ZnCl2, 0.01 mM CaCl2, 0.01 mM MnCl2, and 0.01 mM MnSO4, against a three time buffer change.
The ligand library was then washed, and E. coli labeled membrane protein, prepared as described above for Example 13, was added (0.1 ml). The ligand library and protein mixture was incubated overnight at room temperature.
as §2
A typical analysis employed 100-300 laser shots. […] A typical analysis employed 200-300 laser shots. The possible identity of the ligand was determined (Narrowed down) by comparing the recorded mass of the ligand with the masses of all possible compounds formed in the library. […]

CC(C)C(NC(CCCCN)C(=O)NCC(=O)O)C(C)C (centres unmarked)
Identified Protein(s) [1]: Glycogen ssynthase kinase-3 beta factor (AQ9WV60).

COc1ccc(Br)c(OC)c1C(=O)N[C@@H](Cc1c[nH]c2ccccc12)C(=O)O
Identified Protein(s) [2]: Cutochrome P450 2C31 (CYPIIC31) (CPCV_CAPAE,Q29478); Fatty acid-binding protein, (FABPI, P0293); Similar to the alpha subunit of protein kinase CK2 (gi 28527943).

O=C(O)CC(NC(=O)c1ccc(-c2ccco2)o1)c1ccc(-c2ccccc2)cc1 (centres unmarked)
Identified Protein(s) [2]: Thyroid receptor interacting protein 11 (TRIP- 11,Q15643); Unnamed protein product (gi 26338976).

O=C(NC1(C(=O)O)CCc2ccccc2C1)c1cccc(Br)n1 (centres unmarked)
Identified Protein(s) [2]: Gap junction beta-5 protein (Connexin 31.1), (Q02739); Hypothetical protein XP1'288677 )gi 208598980).

CC(=O)N(C[C@@H]1CN(Cc2ccc(C(=O)O)cc2)[C@H]2c3ccccc3C(=O)N12)C1(C(=O)O)CCCC1 [HY6]
Identified Protein(s) [3]: Myosin chain (Q63358); NF-kappa B-repressing factor (Transcription factor ITBA4 protein) (O15226).

CC(=O)N(C[C@@H]1CN(C(C)C)[C@H]2c3ccccc3C(=O)N12)[C@H]1CCCCN(CC(=O)O)C1=O [HY7]
Identified Protein(s) [3]: Zinc finger protein 339 (Q9BRPO); DNA repair protein RAD52 homolog (P43351).

CCC(C)C(=O)N(C[C@@H]1CN(C(C)C)[C@H]2c3ccccc3C(=O)N12)[C@H]1CCCCN(CC(=O)O)C1=O (some centres unmarked) [HY8]
Identified Protein(s) [3]: Zinc finger protein 339 (Q9BRPO); DNA repair protein RAD52 homolog (P43351).

CC(C)N1CCCC(CN[C@H]2CCCCN(CC(=O)O)C2=O)N2C(=O)c3ccccc3[C@H]12 (some centres unmarked) [HY9]
Identified Protein(s) [3]: Zinc finger protein 339 (Q9BRPO); DNA repair protein RAD52 homolog (P43351).

CCOC(=O)C(CCc1ccccc1)NC(CCCCN)C(=O)N1CCC[C@H]1C(=O)O (some centres unmarked) [drawing 175]
Identified Protein(s) [1]: Angiotensin converting enzyme (P22967); U2 nuclear ribonucleoprotein auxiliary factor (gi 2842676).

CCCCCCNC(=O)C(CCCCN)NC(C(C)C)C(C)C (centres unmarked) [drawing 179]
Identified Protein(s) [1]: Heat Shock protein 70 kDa protein 12A (Q8KOU4).

COc1ccc(Br)c(OC)c1C(=O)N1CCC(C(=O)O)(c2ccccc2)CC1 [drawing 202]
Identified Protein(s) [2]: Centaurin gamma (3) (Q96P47); Poly [ADP-ribose] poly- merase-1 (PARP-1) (ADPRT) (NAD(+) ADP- ribosyltransferase-1) (Poly[ADP-ribose] synthease-1) (P09874); Aortic preferentially expressed protein 1 (APEG-1) Aortic preferentially expressed protein 1 (APG1_RAT, Q63638).

COc1ccc(Br)c(OC)c1C(=O)N1CCC(C(=O)O)(c2ccccc2)CC1 [drawing 209]
Identified Protein(s) [2]: Cutochrome P450 2C31 (CYPIIC31) (CPCV_CAPAE,Q29478); Fatty acid-binding protein, (FABPI, P0293); Similar to the alpha subunit of protein kinase CK2 (gi 28527943).

T(Sa)-F-G-L-M
Identified Protein(s) [4]: (M).

T(Sa)-F-V-W-H
Identified Protein(s) [4]: (P).

T(Sa)-H-I-G-Y
Identified Protein(s) [4]: 16129807/15831818) (LA, M)

T(Sa)-H-W-H-L ([T(Sa)]HWHL)
Identified Protein(s) [4]: (NaDPH) (gi 2121143).

T(Sa)-H-W-V-V
Identified Protein(s) [4]: (M).
